# From PubChem BioAssay (NCI)
#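 Compound exposure: 48 hours, 5 concentrations, 96-well plates. TGI is the concentration that stops growth completely.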
# Columns and labels:
# Test in all cases: growth of human tumour cells (NCI), 48 h
# 786-0 renal = system: 786-0 renal
# A498 renal = system: A498 renal
# A549 NSCLC = system: A549 NSCLC
# ACHN renal = system: ACHN renal
# BT-549 breast = system: BT-549 breast
# CAKI-1 renal = system: CAKI-1 renal
# CCRF-CEM leukemia = system: CCRF-CEM leukemia
# COLO 205 colon = system: COLO 205 colon
# DU-145 prostate = system: DU-145 prostate
# EKVX NSCLC = system: EKVX NSCLC
# HCC-2998 colon = system: HCC-2998 colon
# HCT-116 colon = system: HCT-116 colon
# HCT-15 colon = system: HCT-15 colon
# HOP-62 NSCLC = system: HOP-62 NSCLC
# HOP-92 NSCLC = system: HOP-92 NSCLC
# HS 578T breast = system: HS 578T breast
# HT29 colon = system: HT29 colon
# IGROV1 ovarian = system: IGROV1 ovarian
# K-562 leukemia = system: K-562 leukemia
# KM12 colon = system: KM12 colon
# LOX IMVI melanoma = system: LOX IMVI melanoma
# M14 melanoma = system: M14 melanoma
# MALME-3M melanoma = system: MALME-3M melanoma
# MCF7 breast = system: MCF7 breast
# MDA-MB-231 breast = system: MDA-MB-231 breast
# MDA-MB-435 = system: MDA-MB-435
# MDA-N = system: MDA-N
# MOLT-4 leukemia = system: MOLT-4 leukemia
# NCI-H226 lung = system: NCI-H226 lung
# NCI-H23 lung = system: NCI-H23 lung
# NCI-H460 lung = system: NCI-H460 lung
# NCI/ADR-RES ovarian = system: NCI/ADR-RES ovarian
# OVCAR-3 ovarian = system: OVCAR-3 ovarian
# OVCAR-4 ovarian = system: OVCAR-4 ovarian
# OVCAR-5 ovarian = system: OVCAR-5 ovarian
# OVCAR-8 ovarian = system: OVCAR-8 ovarian
# PC-3 prostate = system: PC-3 prostate
# RPMI-8226 leukemia = system: RPMI-8226 leukemia
# RXF 393 renal = system: RXF 393 renal
# SF-268 CNS = system: SF-268 CNS
# SF-295 CNS = system: SF-295 CNS
# SF-539 CNS = system: SF-539 CNS
# SK-MEL-2 melanoma = system: SK-MEL-2 melanoma
# SK-MEL-28 melanoma = system: SK-MEL-28 melanoma
# SK-MEL-5 melanoma = system: SK-MEL-5 melanoma
# SK-OV-3 ovarian = system: SK-OV-3 ovarian
# SN12C renal = system: SN12C renal
# SNB-19 CNS = system: SNB-19 CNS
# SNB-75 CNS = system: SNB-75 CNS
# SR leukemia = system: SR leukemia
# SW-620 colon = system: SW-620 colon
# T-47D breast = system: T-47D breast
# TK-10 renal = system: TK-10 renal
# U251 CNS = system: U251 CNS
# UACC-257 melanoma = system: UACC-257 melanoma
# UO-31 renal = system: UO-31 renal
# HL-60(TB) leukemia = system: HL-60(TB) leukemia
# NCI-H522 lung = system: NCI-H522 lung
# UACC-62 melanoma = system: UACC-62 melanoma
smiles,measurement,setting,value
COc1ccccc1N=N/C(=N\NC(=O)c1ccc(C)cc1)c1ccc(N(CCC#N)CCC#N)cc1C,TGI,786-0 renal,> 100 µM
same,TGI,A498 renal,> 100 µM
same,TGI,A549 NSCLC,> 100 µM
same,TGI,ACHN renal,> 100 µM
same,TGI,BT-549 breast,> 100 µM
same,TGI,CAKI-1 renal,> 100 µM
same,TGI,CCRF-CEM leukemia,> 100 µM
same,TGI,COLO 205 colon,37.3 µM
same,TGI,DU-145 prostate,> 100 µM
same,TGI,EKVX NSCLC,> 100 µM
same,TGI,HCC-2998 colon,> 100 µM
same,TGI,HCT-116 colon,> 100 µM
same,TGI,HCT-15 colon,> 100 µM
same,TGI,HOP-62 NSCLC,> 100 µM
same,TGI,HOP-92 NSCLC,> 100 µM
same,TGI,HS 578T breast,> 100 µM
same,TGI,HT29 colon,> 100 µM
same,TGI,IGROV1 ovarian,> 100 µM
same,TGI,K-562 leukemia,> 100 µM
same,TGI,KM12 colon,> 100 µM
same,TGI,LOX IMVI melanoma,> 100 µM
same,TGI,M14 melanoma,> 100 µM
same,TGI,MALME-3M melanoma,77.4 µM
same,TGI,MCF7 breast,> 100 µM
same,TGI,MDA-MB-231 breast,> 100 µM
same,TGI,MDA-MB-435,> 100 µM
same,TGI,MDA-N,> 100 µM
same,TGI,MOLT-4 leukemia,> 100 µM
same,TGI,NCI-H226 lung,28.5 µM
same,TGI,NCI-H23 lung,94.4 µM
same,TGI,NCI-H460 lung,> 100 µM
same,TGI,NCI/ADR-RES ovarian,> 100 µM
same,TGI,OVCAR-3 ovarian,61.9 µM
same,TGI,OVCAR-4 ovarian,> 100 µM
same,TGI,OVCAR-5 ovarian,> 100 µM
same,TGI,OVCAR-8 ovarian,> 100 µM
same,TGI,PC-3 prostate,> 100 µM
same,TGI,RPMI-8226 leukemia,> 100 µM
same,TGI,RXF 393 renal,> 100 µM
same,TGI,SF-268 CNS,> 100 µM
same,TGI,SF-295 CNS,> 100 µM
same,TGI,SF-539 CNS,> 100 µM
same,TGI,SK-MEL-2 melanoma,> 100 µM
same,TGI,SK-MEL-28 melanoma,> 100 µM
same,TGI,SK-MEL-5 melanoma,53.6 µM
same,TGI,SK-OV-3 ovarian,> 100 µM
same,TGI,SN12C renal,> 100 µM
same,TGI,SNB-19 CNS,> 100 µM
same,TGI,SNB-75 CNS,> 100 µM
same,TGI,SR leukemia,> 100 µM
same,TGI,SW-620 colon,> 100 µM
same,TGI,T-47D breast,> 100 µM
same,TGI,TK-10 renal,> 100 µM
same,TGI,U251 CNS,> 100 µM
same,TGI,UACC-257 melanoma,> 100 µM
same,TGI,UO-31 renal,> 100 µM
CCOc1ccc(N=NS(=O)(=O)O)cc1,TGI,786-0 renal,> 100 µM
same,TGI,A498 renal,> 100 µM
same,TGI,A549 NSCLC,> 100 µM
same,TGI,ACHN renal,> 100 µM
same,TGI,BT-549 breast,> 100 µM
same,TGI,CAKI-1 renal,> 100 µM
same,TGI,CCRF-CEM leukemia,> 100 µM
same,TGI,COLO 205 colon,> 100 µM
same,TGI,DU-145 prostate,> 100 µM
same,TGI,EKVX NSCLC,> 100 µM
same,TGI,HCC-2998 colon,> 100 µM
same,TGI,HCT-116 colon,> 100 µM
same,TGI,HCT-15 colon,> 100 µM
same,TGI,HL-60(TB) leukemia,> 100 µM
same,TGI,HOP-62 NSCLC,> 100 µM
same,TGI,HOP-92 NSCLC,> 100 µM
same,TGI,HS 578T breast,> 100 µM
same,TGI,HT29 colon,> 100 µM
same,TGI,IGROV1 ovarian,> 100 µM
same,TGI,K-562 leukemia,> 100 µM
same,TGI,KM12 colon,> 100 µM
same,TGI,LOX IMVI melanoma,> 100 µM
same,TGI,M14 melanoma,> 100 µM
same,TGI,MALME-3M melanoma,> 100 µM
same,TGI,MCF7 breast,> 100 µM
same,TGI,MDA-MB-231 breast,> 100 µM
same,TGI,MDA-MB-435,> 100 µM
same,TGI,MDA-N,> 100 µM
same,TGI,NCI-H226 lung,> 100 µM
same,TGI,NCI-H23 lung,> 100 µM
same,TGI,NCI-H460 lung,> 100 µM
same,TGI,NCI-H522 lung,> 100 µM
same,TGI,NCI/ADR-RES ovarian,> 100 µM
same,TGI,OVCAR-3 ovarian,> 100 µM
same,TGI,OVCAR-4 ovarian,> 100 µM
same,TGI,OVCAR-5 ovarian,> 100 µM
same,TGI,OVCAR-8 ovarian,> 100 µM
same,TGI,PC-3 prostate,> 100 µM
same,TGI,RPMI-8226 leukemia,> 100 µM
same,TGI,RXF 393 renal,> 100 µM
same,TGI,SF-268 CNS,> 100 µM
same,TGI,SF-295 CNS,> 100 µM
same,TGI,SF-539 CNS,> 100 µM
same,TGI,SK-MEL-2 melanoma,> 100 µM
same,TGI,SK-MEL-28 melanoma,> 100 µM
same,TGI,SK-MEL-5 melanoma,> 100 µM
same,TGI,SK-OV-3 ovarian,> 100 µM
same,TGI,SN12C renal,> 100 µM
same,TGI,SNB-19 CNS,> 100 µM
same,TGI,SNB-75 CNS,> 100 µM
same,TGI,SR leukemia,> 100 µM
same,TGI,SW-620 colon,> 100 µM
same,TGI,T-47D breast,> 100 µM
same,TGI,TK-10 renal,> 100 µM
same,TGI,U251 CNS,> 100 µM
same,TGI,UACC-257 melanoma,> 100 µM
same,TGI,UACC-62 melanoma,> 100 µM
same,TGI,UO-31 renal,> 100 µM
CCOC(=O)c1nc2ccccc2nc1Oc1cc(OC)c(OC)c(OC)c1,TGI,786-0 renal,> 100 µM
same,TGI,A498 renal,> 100 µM
same,TGI,A549 NSCLC,> 100 µM
same,TGI,ACHN renal,> 100 µM
same,TGI,BT-549 breast,> 100 µM
same,TGI,CAKI-1 renal,> 100 µM
same,TGI,CCRF-CEM leukemia,> 100 µM
same,TGI,COLO 205 colon,> 100 µM
same,TGI,DU-145 prostate,> 100 µM
same,TGI,EKVX NSCLC,> 100 µM
same,TGI,HCC-2998 colon,> 100 µM
same,TGI,HCT-116 colon,> 100 µM
same,TGI,HCT-15 colon,> 100 µM
same,TGI,HL-60(TB) leukemia,> 100 µM
same,TGI,HOP-62 NSCLC,> 100 µM
same,TGI,HOP-92 NSCLC,> 100 µM
same,TGI,HS 578T breast,> 100 µM
same,TGI,HT29 colon,> 100 µM
same,TGI,IGROV1 ovarian,> 100 µM
same,TGI,KM12 colon,> 100 µM
same,TGI,LOX IMVI melanoma,> 100 µM
same,TGI,M14 melanoma,> 100 µM
same,TGI,MALME-3M melanoma,> 100 µM
same,TGI,MCF7 breast,> 100 µM
same,TGI,MDA-MB-231 breast,> 100 µM
same,TGI,MDA-MB-435,> 100 µM
same,TGI,MDA-N,> 100 µM
same,TGI,MOLT-4 leukemia,> 100 µM
same,TGI,NCI-H23 lung,> 100 µM
same,TGI,NCI-H460 lung,> 100 µM
same,TGI,NCI-H522 lung,> 100 µM
same,TGI,NCI/ADR-RES ovarian,> 100 µM
same,TGI,OVCAR-3 ovarian,> 100 µM
same,TGI,OVCAR-4 ovarian,> 100 µM
same,TGI,OVCAR-5 ovarian,> 100 µM
same,TGI,OVCAR-8 ovarian,> 100 µM
same,TGI,PC-3 prostate,> 100 µM
same,TGI,RPMI-8226 leukemia,> 100 µM
same,TGI,SF-268 CNS,> 100 µM
same,TGI,SF-295 CNS,> 100 µM
same,TGI,SF-539 CNS,> 100 µM
same,TGI,SK-MEL-2 melanoma,> 100 µM
same,TGI,SK-MEL-28 melanoma,> 100 µM
same,TGI,SK-MEL-5 melanoma,> 100 µM
same,TGI,SN12C renal,> 100 µM
same,TGI,SNB-19 CNS,> 100 µM
same,TGI,SNB-75 CNS,> 100 µM
same,TGI,SR leukemia,> 100 µM
same,TGI,SW-620 colon,> 100 µM
same,TGI,T-47D breast,> 100 µM
same,TGI,TK-10 renal,> 100 µM
same,TGI,U251 CNS,99.4 µM
same,TGI,UACC-257 melanoma,> 100 µM
same,TGI,UACC-62 melanoma,> 100 µM
same,TGI,UO-31 renal,> 100 µM
